Measurements: patent US20260008784A1 (VASTHERA CO., LTD., priority 2022, published 2026)

Key:
[1] = Measurement of redox potential (DTT redox buffers, HPLC); type: physicochemical; conditions: DTT(Red)/DTT(Ox) redox buffers, 3 h, 30° C., 50% reduction of test compound
[2] = test system: human aortic smooth muscle cell (HASMC); assay: PDGF-induced proliferation assay, HASMC (PrxII siRNA); type: cell-based; conditions: for Degree of HASMC proliferation: PDGF-BB 25 ng/mL, percent of untreated control; for IC50: Homo sapiens, HASMC, 50% growth inhibition, PDGF-stimulated
[3] = test system: yeast thioredoxin (Trx)/yeast Trx reductase (TR); assay: Peroxidase activity assay (H2O2 reduction, NADPH oxidation); type: biochemical; conditions: 50 μM test compound, 3 μM yeast Trx, 1.5 μM yeast TR, 250 μM NADPH, 1.2 mM H2O2, 30° C.; NADPH oxidized per minute
How it was run: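 Buffer: 50 mM HEPES pH 7.0, 1 mM EDTA, 250 μM NADPH, 3 μM yeast Trx, 1.5 μM yeast TR, 50 μM test compound; reaction started with 1.2 mM H2O2. A340 decrease followed at 30° C for 12 min. Initial rate is NADPH oxidized per minute, taken from the linear slope.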

[4] = in vitro
Experimental: Cytotoxicity tests were performed against vascular endothelial cells, vascular smooth muscle cells and hepatocytes. After treatment with ascending concentrations of each compound, the concentration of test compound corresponding to 50% cell viability (CC50) was measured.

[5] = test system: human pulmonary artery endothelial cell (PAEC); assay: VEGF-induced proliferation assay, PAEC (PrxII siRNA); type: cell-based; conditions: for Degree of PAEC proliferation: VEGF-A 25 ng/mL, percent of untreated control; for EC50: Homo sapiens, Endothelial cell, effective concentration increasing cell proliferation by 50%, VEGF-stimulated
Experimental: HAECs and PAECs were transfected with a PrxII-specific siRNA using RNAi MAX transfection reagent according to manufacturer's protocol. After 24 hours, transfected cells (3,000 cells/well) were seeded in a 96-well culture plate. At 12 h after seeding, cells were serum-starved for additional 18 h in EBM basal medium containing 0.5% FBS. Test compounds were serially diluted with the same basal medium containing 0.5% FBS, added to the cells ([…]), and incubated for 2 h. After treatment, cells were placed in fresh EBM medium containing 0.5% FBS and VEGF-A (25 ng/mL) for growth factor stimulation and further cultured for 24 h.
The degree of cell proliferation was measured using the Cell Titer-GLO kit ([…]). Data are the percent of luminescence intensity averaged from three replicate wells versus that of untreated control group.
In human aortic endothelial cell (HAEC) and human pulmonary artery endothelial cell (PAEC) in which PrxII was knocked out by transfecting the PrxII siRNA, the ability of test compounds to augment the VEGF-induced proliferation of vascular endothelial cells was evaluated. In Table 7, the degree of proliferation in the compound-treated groups is expressed as percent of the degree of proliferation in untreated control group. The effective concentrations of test compounds increasing cell proliferation by 50% (EC50) is also listed.

[6] = test system: Tyr 857 phosphorylation of PDGF receptor-β (PDGFRβ) in HASMC; assay: Immunoblot of PDGF-mediated signaling in PrxII knock-down HASMC; type: cell-based, human; conditions: for Effect on phosphorylation of Tyr 857 on PDGFR: HASMC depleted of PrxII expression, FIG. 2
How it was run: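 HASMC and PASMC with PrxII knocked down by siRNA were treated with test compounds and PDGF-stimulated. Lysates in Hepes pH 7.0/Triton X-100 buffer with phosphatase and protease inhibitors were immunoblotted with anti-phospho-Tyr 857 PDGFRβ antibody. Membranes were stripped and reprobed.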

Structure (SMILES): O=C1C2CSSC3(COCCN13)C(=O)N2Cc1ccccc1 (stereo not drawn) [Compound 8, 12-benzyltetrahydro-5H,10H-4,10a-(epiminomethano)[1,4]oxazino[3,4-c][1,2,4]dithia zepine-5,11-dione]
- Midpoint redox potential (E m) [1]: −272.6 mV
- Degree of HASMC proliferation ([2]; 2.5 nM): 75.1%
- Degree of HASMC proliferation ([2]; 5 nM): 40.1%
- Degree of HASMC proliferation ([2]; 10 nM): 46.9%
- Degree of HASMC proliferation ([2]; 25 nM): 30.2%
- IC50 [2]: 6.46 nM
- Peroxidase activity for H2O2 reduction [3]: 4.91 nmol/min
- CC50 [4]: 312000 nM
- Degree of PAEC proliferation ([5]; 2.5 nM): 108.5%
- Degree of PAEC proliferation ([5]; 5 nM): 124.9%
- Degree of PAEC proliferation ([5]; 10 nM): 143.4%
- Degree of PAEC proliferation ([5]; 25 nM): 164.8%
- Degree of PAEC proliferation ([5]; 50 nM): 158.1%
- Degree of PAEC proliferation ([5]; 100 nM): 144.0%
- EC50 [5]: 5.12 nM

Structure (SMILES): CN1C(=O)C2CSSC1(C)C(=O)N2Cc1ccc2ccccc2n1 (stereo not drawn) [Compound 5, 1,8-dimethyl-6-(quinolin-2-ylmethyl)-2,3-dithia-6,8-diazabicyclo[3.2.2]nonane-7,9-dione]
- Midpoint redox potential (E m) [1]: −290.3 mV
- Degree of HASMC proliferation ([2]; 2.5 nM): 62.3%
- Degree of HASMC proliferation ([2]; 5 nM): 52.4%
- Degree of HASMC proliferation ([2]; 10 nM): 36.9%
- Degree of HASMC proliferation ([2]; 25 nM): 9.7%
- IC50 [2]: 4.87 nM
- Peroxidase activity for H2O2 reduction [3]: 4.80 nmol/min
- CC50 [4]: > 500000 nM
- Effect on phosphorylation of Tyr 857 on PDGFR [6]: strongly abolish the phosphorylation
- Degree of PAEC proliferation ([5]; 2.5 nM): 106.1%
- Degree of PAEC proliferation ([5]; 5 nM): 129.7%
- Degree of PAEC proliferation ([5]; 10 nM): 152.3%
- Degree of PAEC proliferation ([5]; 25 nM): 165.6%
- Degree of PAEC proliferation ([5]; 50 nM): 167.7%
- Degree of PAEC proliferation ([5]; 100 nM): 147.4%
- EC50 [5]: 5.03 nM

Structure (SMILES): CN1C(=O)C2(C)SSCC1C(=O)N2C (stereo not drawn) [Compound 1, 1,6,8-trimethyl-2,3-dithia-6,8-diazabicyclo[3.2.2]nonane-7,9-dione]
- Midpoint redox potential (E m) [1]: −285.25 mV
- Degree of HASMC proliferation ([2]; 2.5 nM): 70.0%
- Degree of HASMC proliferation ([2]; 5 nM): 43.9%
- Degree of HASMC proliferation ([2]; 10 nM): 17.1%
- Degree of HASMC proliferation ([2]; 25 nM): 1.5%
- IC50 [2]: 4.18 nM
- Peroxidase activity for H2O2 reduction [3]: 4.92 nmol/min
- CC50 [4]: 230000 nM
- Effect on phosphorylation of Tyr 857 on PDGFR [6]: strongly abolish the phosphorylation
- Concentrations at which phosphorylation of Tyr 857 on PDGFRβ is significantly reduced ([6]; HASMCs, PrxII knock-down, FIG. 1): above 2.5 nM
- Degree of PAEC proliferation ([5]; 2.5 nM): 104.7%
- Degree of PAEC proliferation ([5]; 5 nM): 120.0%
- Degree of PAEC proliferation ([5]; 10 nM): 143.8%
- Degree of PAEC proliferation ([5]; 25 nM): 164.3%
- Degree of PAEC proliferation ([5]; 50 nM): 158.8%
- Degree of PAEC proliferation ([5]; 100 nM): 145.5%
- EC50 [5]: 9.54 nM

Structure (SMILES): CCN1C(=O)C2(C)SSCC1C(=O)N2CC (stereo not drawn) [Compound 20, 6,8-diethyl-1-methyl-2,3-dithia-6,8-diazabicyclo[3.2.2]nonane-7,9-dione]
- Midpoint redox potential (E m) [1]: −296.79 mV
- Degree of HASMC proliferation ([2]; 2.5 nM): 85.8%
- Degree of HASMC proliferation ([2]; 5 nM): 58.7%
- Degree of HASMC proliferation ([2]; 10 nM): 34.9%
- Degree of HASMC proliferation ([2]; 25 nM): 12.3%
- IC50 [2]: 6.69 nM
- Peroxidase activity for H2O2 reduction [3]: 4.78 nmol/min
- Effect on phosphorylation of Tyr 857 on PDGFR [6]: strongly abolish the phosphorylation
- Degree of PAEC proliferation ([5]; 2.5 nM): 109.2%
- Degree of PAEC proliferation ([5]; 5 nM): 124.3%
- Degree of PAEC proliferation ([5]; 10 nM): 133.5%
- Degree of PAEC proliferation ([5]; 25 nM): 166.5%
- Degree of PAEC proliferation ([5]; 50 nM): 180.9%
- Degree of PAEC proliferation ([5]; 100 nM): 180.4%
- EC50 [5]: 10.3 nM
